From ChEMBL document CHEMBL5113507, “Discovery of potent ebola entry inhibitors with (3S,4aS,8aS)-2-(3-amino-2-hydroxypropyl) decahydroisoquinoline-3-carboxamide scaffold” (Eur J Med Chem, 2022)

Columns and labels:
[1] = cells
[2] = Cytotoxicity against human Huh-7 cells assessed as reduction in cell viability by cellular ATP method; assay type: toxicity, cell-based

Row | Compound | IC50 [1] [µM] | CC50 [2] [µM]
1 | CC(C)(C)NC(=O)[C@@H]1C[C@@H]2CCCC[C@@H]2CN1C[C@@H](O)[C@H](Cc1ccccc1)NC(=O)[C@H](CC(N)=O)NC(=O)c1ccc2ccccc2n1 | 10.5 | –
2 | CC(C)(C)NC(=O)[C@@H]1C[C@@H]2CCCC[C@@H]2CN1C[C@H](O)CNCCc1ccc(Cl)cc1 | – | 4.04
3 | CN(C)CCOc1ccc(/C(=C(/CCCl)c2ccccc2)c2ccccc2)cc1 [TOREMIFENE] | 0.17 | 9.31
